Measurements published in paper PMC5712521, “Dendrogenin A drives LXR to trigger lethal autophagy in cancers” (Nature Communications, 2017).

Assays:
B16F10 cells [1] = test: DDA-induced cytotoxicity (cell death); format: cell-based; conditions: for cell death: B16F10, 5 µM 22(R)HC, 0.5 µM TO, 1 µM GW
Protocol: (§1) Melanoma cells were seeded into 6-well plates at 60,000 cells per well and AML cells at 250,000 cells/ml. The cells were then treated with control solvent vehicle (1/1000 ethanol in water) or DDA. Where indicated, treated cells were incubated in the presence or absence of each inhibitor for time shown. Cell death was determined by the trypan blue exclusion assay. Cells were scraped and resuspended in trypan blue solution (0.25% (w/v) in PBS) and counted in a Malassez cell under light microscopy. Cell viability was then quantified by counting viable (trypan blue-negative) and dead cells (trypan blue-positive).
(§2) Supplementary Fig. 1. a DDA inhibited m elanom a colony form ation. Melanom a cells were […]
(§3) a 0.5% solution of crystal violet in water and analyzed by microscopy. Images are representative of 5 independent experiments. b Evaluation of DDA-induced cytotoxicity (cytotox) and clonogenicity (clono) inhibition in a subset of human (H) and mouse (M) m elanom a cell lines. T he BRaf status in m elanom a cells lines is shown. […]

SKMEL-28 cells [2] = test: DDA-induced cytotoxicity (cell death); format: cell-based; conditions: for cell death: SKMEL-28, 5 µM 22(R)HC, 0.5 µM TO, 1 µM GW
Protocol: as §1, §2, §3

B16F10 cells [3] = test: RT-qPCR of LXR-responsive genes; format: cell-based, mouse; conditions: 8 h, 2.5 µM DDA, 10 µM 22(R)HC, 1 µM GW, 100 nM TO, vs vehicle
Protocol: (§4) Total RNA was extracted from tumor cells or MEFs using an RNA Extraction kit (Qiagen) or Trizol (Invitrogen), respectively, and was quantified with NanoDrop. Complementary DNA (cDNA) synthesis was performed with 1 μg RNA iScript Reverse Transcriptase (Bio-Rad). 25 ng cDNA was amplified using SyBR Supermix (Bio-Rad). RNA expression of the different genes of interest (Supplementary Tables 1, 2) were determined using the ΔΔCT method, where the difference in the threshold cycle (ΔCT) values of the target gene and the housekeeping gene for each sample was normalized to the ΔCT value of the untreated sample.
Supplementary Fig. 4. a R egulat ion of LXR-responsive genes b y D DA and other k nown LXR
ligands in B16F10 and SKMEL- 28 cells transfected with s iRN A targeting LXRβ ( siLXRβ) or
with contro l siRN A scram ble (siSC). Cells were treated for 8 h with either solvent vehicle, 2.5
µM DD A, 10 µM 22(R) hydrox ycholesterol (22(R)HC), 1 µM GW 3965 (GW ) or 100 nM
T O901317 (T O). […]

HL60 cells = test: qRT-PCR of Nur77 and NOR1; format: cell-based, human; conditions: HL60, 24 h; 5 µM DDA, 2 µM TO, 2 µM GW, 10 µM 22(R)HC
Protocol: as §4
(§5) Supplementary Fig. 6. […]
(§6) D ata are expressed relative to the control (solvent vehic le). D ata from b, f, g, h, j, p, q ar e the m eans ± S.E.M. of 3 independent experiments performed in triplicate (*P<0.05, **P<0.01, ***P<0.001, t test). Images are representative of 3 independent experim ents.

KG1 cells = test: qRT-PCR of Nur77 and NOR1; format: cell-based, human; conditions: KG1, 24 h; 5 µM DDA, 2 µM TO, 2 µM GW, 10 µM 22(R)HC
Protocol: as §4, §5, §6

SKMEL-28 cells [4] = test: Cell cycle analysis by flow cytometry; format: cell-based, human; conditions: 5 µM DDA, 48 h
Protocol: Control and DDA-treated cells were fixed in 70% ethanol and then washed with PBS. Cells were incubated with 100 μg/ml RNase A for 30 min at 37 °C, permeabilized with 0.25% Tween-20, and stained with 50 μg/ml propidium iodide (PI) for 30 min at 37 °C. The DNA content of stained cells was analyzed by flow cytometry. The fraction of cells in sub-G1 phase was calculated using flowJo software (Ashland, Oregon). Data were obtained from 10^5 viable cells. […]

SMILES	ABCA1 mRNA (B16F10 cells [3]; B16F10, siCT)	ABCG1 mRNA (B16F10 cells [3]; B16F10, siCT)	ABCG5 mRNA (B16F10 cells [3]; B16F10, siCT)	ABCG8 mRNA (B16F10 cells [3]; B16F10, siCT)	LC3A mRNA (B16F10 cells [3]; B16F10, siCT)	LC3B mRNA (B16F10 cells [3]; B16F10, siCT)	LDLR mRNA (B16F10 cells [3]; B16F10, siCT)	NOR1 mRNA (B16F10 cells [3]; B16F10, siCT)	Nur77 mRNA (B16F10 cells [3]; B16F10, siCT)	SCD1 mRNA (B16F10 cells [3]; B16F10, siCT)	SREBP1 mRNA (B16F10 cells [3]; B16F10, siCT)	SULT2b1b mRNA (B16F10 cells [3]; B16F10, siCT)	ABCA1 mRNA (B16F10 cells [3]; B16F10, siLXRβ)	ABCG1 mRNA (B16F10 cells [3]; B16F10, siLXRβ)	ABCG5 mRNA (B16F10 cells [3]; B16F10, siLXRβ)	ABCG8 mRNA (B16F10 cells [3]; B16F10, siLXRβ)	LC3A mRNA (B16F10 cells [3]; B16F10, siLXRβ)	LC3B mRNA (B16F10 cells [3]; B16F10, siLXRβ)	LDLR mRNA (B16F10 cells [3]; B16F10, siLXRβ)	NOR1 mRNA (B16F10 cells [3]; B16F10, siLXRβ)	further results
CC(C)CC[C@@H](O)[C@@H](C)[C@H]1CC[C@H]2[C@@H]3CC=C4C[C@@H](O)CC[C@]4(C)[C@H]3CC[C@]12C [22(R)HC, 22(R)-hydroxycholesterol]	12.5±2.5 fold	0.7±0.1 fold	4.2±0.2 fold	1.6±0.2 fold	1.3±0.1 fold	1.1±0.2 fold	0.1±0.1 fold	2.2±0.3 fold	1.4±0.1 fold	1.1±0.2 fold	2.2±0.2 fold	1.5±0.3 fold	4.2 ±0.9 fold	1.1±0.1 fold	2.0±0.5 fold	1.0±0.1 fold	1.0±0.3 fold	1.0±0.1 fold	1.1±0.1 fold	0.9±0.2 fold	cell death (B16F10 cells [1]): no impact on cell death; cell death (SKMEL-28 cells [2]): no impact on cell death; Nur77 mRNA (B16F10 cells [3]; B16F10, siLXRβ): 0.8±0.2 fold; SCD1 mRNA (B16F10 cells [3]; B16F10, siLXRβ): 1.2±0.3 fold; SREBP1 mRNA (B16F10 cells [3]; B16F10, siLXRβ): 1.2±0.1 fold; SULT2b1b mRNA (B16F10 cells [3]; B16F10, siLXRβ): 1.1±0.2 fold; NOR1 mRNA levels (Fold over control) (HL60 cells): 0.7 fold; Nur77 mRNA levels (Fold over control) (HL60 cells): 0.8 fold; NOR1 mRNA levels (Fold over control) (KG1 cells): 6.3 fold; Nur77 mRNA levels (Fold over control) (KG1 cells): 1.1 fold
CC(C)CCC[C@@H](C)[C@H]1CC[C@H]2[C@@H]3C[C@@H](NCCc4cnc[nH]4)[C@@]4(O)C[C@@H](O)CC[C@]4(C)[C@H]3CC[C@]12C [DDA, Dendrogenin A]	0.4±0.1 fold	1.4±0.1 fold	3.5±0.1 fold	1.6±0.2 fold	2.4±0.2 fold	1.7±0.1 fold	4.2±0.2 fold	4.6±0.1 fold	6.8±0.2 fold	1.6±0.2 fold	0.9±0.1 fold	1.6±0.1 fold	1.2±0.1 fold	0.9±0.1 fold	1.0±0.1 fold	1.2±0.1 fold	0.9±0.2 fold	1.0±0.2 fold	1.0±0.1 fold	0.3±0.2 fold	EC50 (B16F10 cells [1]; Mus musculus, B16-F10, 72 h, read-out: Cytotox EC50): 700 ± 100 nM; EC50 (SKMEL-28 cells [2]; Homo sapiens, SK-MEL-28, SKMEL-28 (H), BRaf V600E, 72 h, read-out: Cytotox EC50): 2100 ± 200 nM; Cell cycle distribution: G0/G1 (SKMEL-28 cells [4]): 51.80%; Cell cycle distribution: G2/M (SKMEL-28 cells [4]): 4.93%; Cell cycle distribution: S (SKMEL-28 cells [4]): 8.99%; Cell cycle distribution: Sub G0/G1 (SKMEL-28 cells [4]): 34.28%; Nur77 mRNA (B16F10 cells [3]; B16F10, siLXRβ): 0.4±0.1 fold; SCD1 mRNA (B16F10 cells [3]; B16F10, siLXRβ): 0.9±0.2 fold; SREBP1 mRNA (B16F10 cells [3]; B16F10, siLXRβ): 0.9±0.2 fold; SULT2b1b mRNA (B16F10 cells [3]; B16F10, siLXRβ): 0.8±0.1 fold; NOR1 mRNA levels (Fold over control) (HL60 cells): 6.3 fold; Nur77 mRNA levels (Fold over control) (HL60 cells): 11.2 fold; NOR1 mRNA levels (Fold over control) (KG1 cells): 12.2 fold; Nur77 mRNA levels (Fold over control) (KG1 cells): 8.8 fold
O=C(O)Cc1cccc(OCCCN(Cc2cccc(C(F)(F)F)c2Cl)CC(c2ccccc2)c2ccccc2)c1 [GW, GW3965]	14.3±1.6 fold	2.1±0.4 fold	1.9±0.5 fold	1.7±0.2 fold	1.1±0.1 fold	1.1±0.1 fold	2.0±0.1 fold	1.6±0.2 fold	1.0±0.3 fold	1.9±0.2 fold	3.1±0.2 fold	1.2±0.1 fold	2.6±0.1 fold	1.1±0.2 fold	0.9±0.1 fold	0.9±0.1 fold	1.1±0.2 fold	1.1±0.3 fold	1.0±0.2 fold	1.0±0.1 fold	cell death (B16F10 cells [1]): no impact on cell death; cell death (SKMEL-28 cells [2]): no impact on cell death; Nur77 mRNA (B16F10 cells [3]; B16F10, siLXRβ): 0.9±0.2 fold; SCD1 mRNA (B16F10 cells [3]; B16F10, siLXRβ): 1.1±0.1 fold; SREBP1 mRNA (B16F10 cells [3]; B16F10, siLXRβ): 1.1±0.2 fold; SULT2b1b mRNA (B16F10 cells [3]; B16F10, siLXRβ): 1.0±0.1 fold; NOR1 mRNA levels (Fold over control) (HL60 cells): 0.3 fold; Nur77 mRNA levels (Fold over control) (HL60 cells): 1.3 fold; NOR1 mRNA levels (Fold over control) (KG1 cells): 1.8 fold; Nur77 mRNA levels (Fold over control) (KG1 cells): 0.8 fold
O=S(=O)(c1ccccc1)N(CC(F)(F)F)c1ccc(C(O)(C(F)(F)F)C(F)(F)F)cc1 [TO, TO901317]	8.5±1.8 fold	1.1±0.3 fold	3.6±0.6 fold	1.5±0.1 fold	1.0±0.3 fold	1.3±0.1 fold	1.7±0.1 fold	1.9±0.2 fold	0.9±0.3 fold	1.6±0.2 fold	3.3±0.1 fold	3.2±0.2 fold	2.0±0.4 fold	1.0±0.1 fold	1.0±0.2 fold	1.1±0.2 fold	1.0±0.2 fold	1.2±0.3 fold	1.0±0.2 fold	0.7±0.3 fold	cell death (B16F10 cells [1]): no impact on cell death; cell death (SKMEL-28 cells [2]): no impact on cell death; Nur77 mRNA (B16F10 cells [3]; B16F10, siLXRβ): 0.6±0.2 fold; SCD1 mRNA (B16F10 cells [3]; B16F10, siLXRβ): 0.9±0.1 fold; SREBP1 mRNA (B16F10 cells [3]; B16F10, siLXRβ): 0.9±0.2 fold; SULT2b1b mRNA (B16F10 cells [3]; B16F10, siLXRβ): 1.2±0.3 fold; NOR1 mRNA levels (Fold over control) (HL60 cells): 2.7 fold; Nur77 mRNA levels (Fold over control) (HL60 cells): 0.4 fold; NOR1 mRNA levels (Fold over control) (KG1 cells): 1.1 fold; Nur77 mRNA levels (Fold over control) (KG1 cells): 1.5 fold
